The values that follow come from PubChem BioAssay (NCI).

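Results reflect a 48-hour exposure of cells in 96-well plates to compound at five concentrations. Here, GI50 denotes the concentration required for 50% inhibition of growth. Definition used: TGI = concentration required for complete inhibition of growth.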 Bounds are passed on as bounds.

Among the test systems are CCRF-CEM leukemia; K-562 leukemia; M14 melanoma; MALME-3M melanoma; NCI-H226 lung; SF-295 CNS; SK-OV-3 ovarian; SR leukemia; U251 CNS; UACC-62 melanoma.
Holding throughout (assay): growth of human tumour cells (NCI), 48 h

As to `O=C1c2cc([N+](=O)[O-])ccc2-c2ccc3c4ccc5c6c(ccc(c7ccc1c2c73)c64)C(=O)c1cc([N+](=O)[O-])ccc1-5`, the TGI in the assay with CCRF-CEM leukemia, in the assay on K-562 leukemia, with M14 melanoma, in the assay with MALME-3M melanoma, in the assay with NCI-H226 lung and in the assay on SF-295 CNS was over 100 µM throughout. Moreover, the TGI in the assay with SK-OV-3 ovarian, in the assay on SR leukemia, in the assay with U251 CNS and in the assay on UACC-62 melanoma was over 100 µM throughout.
Turning to `CN1CCN(C)C12C=CC=CC21CC1`, the TGI with CCRF-CEM leukemia, in the assay with K-562 leukemia, in the assay with M14 melanoma, in the assay on MALME-3M melanoma, in the assay on NCI-H226 lung and in the assay with SF-295 CNS was over 100 µM in each case. Further, the TGI in the assay with SK-OV-3 ovarian, in the assay with SR leukemia, in the assay on U251 CNS and with UACC-62 melanoma was over 100 µM throughout.
As to `CC(=O)Oc1ccc(/C(=C(\C)c2ccc(Cl)cc2)c2ccc(OCCN3CCCCC3)cc2)cc1`, the GI50 in the assay on CCRF-CEM leukemia is 2.2 µM; in the assay with K-562 leukemia, 1.21 µM; in the assay on M14 melanoma it was 1.69 µM; with MALME-3M melanoma, 1.96 µM; in the assay with NCI-H226 lung it was 6.39 µM; in the assay on SF-295 CNS, 1.72 µM. Besides, the GI50 was 2.31 µM with SK-OV-3 ovarian, 0.739 µM with SR leukemia, 1.66 µM in the assay on U251 CNS and 1.86 µM with UACC-62 melanoma. The TGI amounted to 6.67 µM in the assay with CCRF-CEM leukemia; 3.59 µM in the assay with K-562 leukemia; 3.17 µM in the assay on M14 melanoma; 3.91 µM in the assay on MALME-3M melanoma; 22.9 µM in the assay on NCI-H226 lung; 3.27 µM in the assay on SF-295 CNS. The TGI came to 6.09 µM with SK-OV-3 ovarian, 3.06 µM in the assay with SR leukemia, 3.27 µM with U251 CNS and 3.73 µM in the assay with UACC-62 melanoma.
Consider `O=C1OCC2=C1C(c1ccc(Cl)c(Cl)c1)c1cc3c(cc1N2CCO)CCC3` (centres undefined), for which the GI50 with CCRF-CEM leukemia was 0.257 µM; in the assay on K-562 leukemia, 0.204 µM; with M14 melanoma it was 0.2 µM; in the assay with MALME-3M melanoma it was 0.193 µM; in the assay on NCI-H226 lung, 0.248 µM; in the assay with SF-295 CNS, 0.108 µM. Also, the GI50 with SK-OV-3 ovarian is 0.211 µM; with SR leukemia, 0.348 µM; with U251 CNS, 0.181 µM; in the assay with UACC-62 melanoma, 0.215 µM. Moreover, the TGI in the assay with CCRF-CEM leukemia came out at 13.6 µM; in the assay on K-562 leukemia it was 9.71 µM; with M14 melanoma it was 6.53 µM; with MALME-3M melanoma it was 16.4 µM; in the assay with NCI-H226 lung, 6.47 µM; in the assay on SF-295 CNS, 1.5 µM. The TGI was found to be 6 µM in the assay on SK-OV-3 ovarian, 16.2 µM with SR leukemia, 6.29 µM with U251 CNS and 8.6 µM with UACC-62 melanoma.
As to `NC(N)=N/N=C/c1ccc(-c2ccc(-c3cc(Cl)cc(Cl)c3)s2)cc1`, the GI50 with CCRF-CEM leukemia is 1.65 µM; with K-562 leukemia it was 0.431 µM; in the assay on M14 melanoma, 1.75 µM; with MALME-3M melanoma, 1.72 µM; in the assay on NCI-H226 lung it was 2.33 µM; in the assay with SF-295 CNS, 1.84 µM. Also, the GI50 in the assay on SK-OV-3 ovarian was 2 µM; in the assay with SR leukemia, 0.326 µM; in the assay with U251 CNS, 1.89 µM; in the assay on UACC-62 melanoma, 1.85 µM. The TGI came out at 4.62 µM in the assay with CCRF-CEM leukemia; 1.79 µM in the assay with K-562 leukemia; 3.53 µM in the assay on M14 melanoma; 3.42 µM in the assay on MALME-3M melanoma; 5.99 µM with NCI-H226 lung; 3.47 µM in the assay on SF-295 CNS. The TGI in the assay on SK-OV-3 ovarian came to 4.08 µM; in the assay with SR leukemia, 1.73 µM; in the assay with U251 CNS it was 4.04 µM; with UACC-62 melanoma, 3.72 µM.
Regarding `CC(=O)N1N=C2/C(=C/c3ccc(Cl)cc3)CC(C)CC2C1c1ccc(Cl)cc1` (centres undefined), the GI50 is 19.7 µM in the assay on CCRF-CEM leukemia; 13.8 µM in the assay on K-562 leukemia; 17.7 µM in the assay with M14 melanoma; 23.6 µM in the assay with MALME-3M melanoma; 22 µM in the assay on NCI-H226 lung; 28.8 µM in the assay with SF-295 CNS. The GI50 is 20.4 µM in the assay on SK-OV-3 ovarian, 14.6 µM with SR leukemia, 25.1 µM in the assay with U251 CNS and 21.1 µM with UACC-62 melanoma. The TGI is 62.6 µM with CCRF-CEM leukemia; 65.8 µM with K-562 leukemia; 35.3 µM in the assay with M14 melanoma; 76.2 µM in the assay on MALME-3M melanoma; 70.2 µM with NCI-H226 lung; over 100 µM in the assay with SF-295 CNS. Further, the TGI was 59.6 µM in the assay with SK-OV-3 ovarian, 53.8 µM with SR leukemia, 86.8 µM with U251 CNS and 52.2 µM with UACC-62 melanoma.
As for `O=C(COC(=O)c1cccc2c(=O)c3ccccc3[nH]c12)Nc1ccc(C(=O)O)cc1`, the TGI in the assay on CCRF-CEM leukemia was over 100 µM; in the assay on K-562 leukemia it was over 100 µM; in the assay with M14 melanoma, over 100 µM; with MALME-3M melanoma it was over 100 µM; in the assay on NCI-H226 lung, over 10 µM; with SF-295 CNS, over 100 µM. Besides, the TGI with SK-OV-3 ovarian, with SR leukemia, in the assay with U251 CNS and in the assay on UACC-62 melanoma was over 100 µM each time.
Consider `Cc1ccc(NC(=O)c2sc3nc4c(cc3c2N)C(=O)CCC4)cc1C`, for which the GI50 is 0.377 µM in the assay with CCRF-CEM leukemia; 0.468 µM with K-562 leukemia; 0.602 µM with M14 melanoma; 27.3 µM in the assay with NCI-H226 lung; 0.358 µM with SF-295 CNS; 0.533 µM in the assay with SK-OV-3 ovarian. Moreover, the GI50 was 0.499 µM in the assay with SR leukemia, 0.765 µM in the assay with U251 CNS and 0.496 µM in the assay on UACC-62 melanoma. Moreover, the TGI is 97 µM in the assay with CCRF-CEM leukemia; 35 µM in the assay on K-562 leukemia; over 100 µM in the assay with M14 melanoma; over 100 µM in the assay with MALME-3M melanoma; over 100 µM with NCI-H226 lung; over 100 µM with SF-295 CNS. The TGI was over 100 µM in the assay on SK-OV-3 ovarian, 26.8 µM in the assay with SR leukemia, over 56.7 µM with U251 CNS and over 100 µM in the assay on UACC-62 melanoma.
Take `Cc1cc(C)nc(NS(=O)(=O)c2ccc(Nc3c4ccc(Cl)cc4nc4c(C(=O)NCCN(C)C)cccc34)cc2)n1`: the TGI with CCRF-CEM leukemia, with K-562 leukemia, with M14 melanoma, with MALME-3M melanoma, with NCI-H226 lung and in the assay on SF-295 CNS was over 100 µM throughout. Further, the TGI with SK-OV-3 ovarian, in the assay on SR leukemia, in the assay with U251 CNS and in the assay with UACC-62 melanoma was over 100 µM in each case.
